Here are results for 13 compounds from patent US20080033031A1, “ANTIBIOTIC COMPOUNDS, COMPOSITIONS AND METHODS OF TREATMENT” (priority 2004, published 2008).

Data set [1] has as its system P. acnes ATCC 11827. The experiment in a line: MIC against P. acnes ATCC 11827. The class given is cell-based, Propionibacterium acnes. As for the experimental part: (§1) The microbiological activity of clindamycin analogs was evaluated by measuring the minimum inhibitory concentrations (MIC) of each compound against Staphylococcus aureus (S. aureus) and Propionibacterium acnes (P. acnes). These two microorganisms were selected, as they are commonly known to be the contributing factors for acne. The compounds evaluated were the following: • a. […] Clindamycin sulfone (CSO2) and its salts • d. Clindamycin phosphate • e.

The test system of data set [2] is S. aureus ATCC 29213. The experiment in a line: MIC against S. aureus ATCC 29213. It counts as cell-based, Staphylococcus aureus. As for the experimental part: as §1
Data set [3] is described as follows: Stability studies with benzoyl peroxide in buffer solutions. The settings on record: 1% analog with 5% BPO, pH 3 buffer, 50° C. It counts as physicochemical. As to the method: The concentrations of each of the clindamycin analogs and BPO in the mixtures were 1% (w/w) and 5% (w/w), respectively.
Samples were prepared by dissolving each of the clindamycin analogs and suspending the BPO powder in the buffer solutions of different pHs. Samples were placed either at RT or at 50° C. Samples were pulled at time intervals and tested for the appropriate clindamycin analog and pH.
The figures show the plots of the percent remaining (% of initial) of the clindamycin analog versus time. The percent of initial is obtained by normalizing the concentration at each time point to the initial concentration.

Data set [4] has as its system P. acnes ATCC 1127. The data set can be described thus: MIC against P. acnes ATCC 1127. It counts as cell-based, Propionibacterium acnes. The settings on record: Cutibacterium acnes, ATCC1127. As for the experimental part: as §1
The test system of data set [5] is S. aureus ATCC 6538. The data set can be described thus: MIC against S. aureus ATCC 6538. The class given is cell-based. The note with it: Staphylococcus aureus, ATCC6538. As for the experimental part: as §1
[6] abbreviates: Cutibacterium acnes, ATCC11827, read-out: MIC.
Setting [7] is: Staphylococcus aureus, ATCC29213, read-out: MIC.

Values after ≈ are worked out from the molar mass of the structure shown. Read-outs that look alike come from different tables or passages of the source. A value given as a limit tells only on which side of the number the result lay.

Consider `CCCC1CC(C(=O)NC(C(C)Cl)C2OC(S(C)(=O)=O)C(O)C(O)C2O)N(C)C1.Cl` (centres unmarked) [CSO2 HCl], for which the MIC (commonly the lowest concentration found to suppress growth) in data set [1] is 0.5 µg/mL; in data set [2], 1 µg/mL.
In the case of `CCCC1CC(C(=O)NC(C(C)Cl)C2OC(S(C)(=O)=O)C(O)C(O)C2O)N(C)C1.O=S(=O)(O)O` (centres unmarked) [CSO2 sulfate], the results for the MIC in data set [1] and in data set [2] were 0.5 µg/mL and 1 µg/mL, respectively.
Consider `CCC[C@@H]1CC(C(=O)NC(C(C)Cl)[C@H]2O[C@H](S(C)(=O)=O)[C@H](O)[C@@H](O)[C@H]2O)N(C)C1` (some centres unmarked) [CSO2, Clindamycin sulfone], for which the values for the MIC in data set [1] (setting [6]) and in data set [2] (setting [7]) were 0.5 to 1 µg/mL (≈ 1.09 to 2.19 µM) and 1 to 2 µg/mL (≈ 2.19 to 4.38 µM), respectively. In addition, in data set [3] (after 8 weeks of storage), the “remained in the solution (% of initial)” value is “about 85%”. The “remaining in the samples (% of initial)” value in data set [3] (after 12 weeks of storage) is recorded as “about 70%”.
Consider `CCC[C@@H]1C[C@@H](C(=O)N[C@@H]([C@H]2O[C@H]([S+](C)[O-])[C@H](O)[C@@H](O)[C@H]2O)[C@H](C)Cl)N(C)C1.Cl` (some centres unmarked) [CSO A HCl], for which the MIC was found to be 8 µg/mL in data set [1] and 16 µg/mL in data set [2].
Take `CCCC1CC(C(=O)NC(C(C)Cl)C2OC([S+](C)[O-])C(O)C(O)C2O)N(C)C1.O=C(O)C=CC(=O)O` (centres unmarked) [CSO A fumarate]: the MIC in data set [1] amounted to 8 µg/mL; in data set [2] it was 16 µg/mL.
For `CCCC1CC(C(=O)NC(C(C)Cl)C2OC([S+](C)[O-])C(O)C(O)C2O)N(C)C1.O=C(O)C=CC(=O)O` (centres unmarked) [CSO A maleate], the MIC in data set [1] and in data set [2] was 16 µg/mL each time.
Turning to `CCCC1CC(C(=O)NC(C(C)Cl)C2OC([S+](C)[O-])C(O)C(O)C2O)N(C)C1.O=C(O)CCC(=O)O` (centres unmarked) [CSO A succinate], the MIC in data set [1] and in data set [2] was 16 µg/mL each time.
Take `CCCC1CC(C(=O)NC(C(C)Cl)C2OC([S+](C)[O-])C(O)C(O)C2O)N(C)C1.Cl` (centres unmarked) [CSO B HCl]: the MIC in data set [1] stood at 0.5 µg/mL; in data set [2] it was 2 µg/mL.
Take `CCCC1CC(C(=O)NC(C(C)Cl)C2OC([S+](C)[O-])C(O)C(O)C2O)N(C)C1.O=C(O)c1ccccc1` (centres unmarked) [CSO B benzoate]: the MIC in data set [1] was determined as 0.5 µg/mL; in data set [2], 2 µg/mL.
On to `CCCC1CC(C(=O)NC(C(C)Cl)C2OC([S+](C)[O-])C(O)C(O)C2O)N(C)C1.O=C(O)CC(O)(CC(=O)O)C(=O)O` (centres unmarked) [CSO B citrate], for which the MIC in data set [1] worked out at 0.5 µg/mL; in data set [2], 2 µg/mL.
As to `CCCC1CC(C(=O)NC(C(C)Cl)C2OC([S+](C)[O-])C(O)C(O)C2O)N(C)C1.O=C(O)C=CC(=O)O` (centres unmarked) [CSO B fumarate], the MIC in data set [1] is 0.5 µg/mL; in data set [2], 2 µg/mL.
For `CCC[C@@H]1C[C@@H](C(=O)N[C@@H]([C@H]2O[C@H](SC)[C@H](OP(=O)(O)O)[C@@H](O)[C@H]2O)[C@H](C)Cl)N(C)C1` [Clindamycin phosphate USP, Clindamycin phosphate, reference compound], the MIC in data set [1] (setting [6]) was 2 to 4 µg/mL; in data set [4] it was 200 µg/mL; in data set [2] (setting [7]), 16 to 32 µg/mL; in data set [5], 200 µg/mL.
Turning to `CC[C@H]1OC(=O)[C@H](C)[C@@H](O[C@H]2C[C@@](C)(OC)[C@@H](O)[C@H](C)O2)[C@H](C)[C@@H](O[C@@H]2O[C@H](C)C[C@H](N(C)C)[C@H]2O)[C@](C)(O)C[C@@H](C)C(=O)[C@H](C)[C@@H](O)[C@]1(C)O` [Erythromycin USP, Erythromycin, reference compound], the MIC is 0.062 µg/mL (≈ 0.0845 µM) in data set [1] (setting [6]), 1.6 µg/mL (≈ 2.18 µM) in data set [4], 0.25 to 0.5 µg/mL (≈ 0.341 to 0.681 µM) in data set [2] (setting [7]) and under 0.8 µg/mL in data set [5].
